In patent US7247645B2, “Dihydropyridine derivatives” (Ajinomoto Co., Inc., priority 1999, dated 2007):
pIC50: −log10 of the molar value. Where two headings read alike, the source gives them in different places.

Experiments:
[1] = target: T1, N-type calcium channel (Homo sapiens, UniProt Q00975); assay: N-type calcium channel antagonistic activity, changed procedure (calcium concentration change in IMR-32 cells, calculated from inhibition rates); assay type: cell-based; conditions: 60 mM KCl stimulation, Table 10, read-out: N-type inhibition pIC50 (converted)
Experimental: (§1) The medium used was a Phenol Red-free Eagle minimum essential medium (GIBCO) containing earle's salts supplement, 2 mM of L-glutamine (GIBCO), 1 mM of sodium pyruvate (pH 6.5) (GIBCO), antibiotic/antimicotic mixture (GIBCO) and 10% fetal calf serum (Cell Culture Technologies). 3 ml of 1×10^5/ml IMR-32 cells were spread on a glass dish (Iwaki Glass Co., Ltd.) having a diameter of 35 mm which was treated with poly-D-lysin (SIGMA) and collagen (COLLAGEN VITROGEN 100, Collagen Co.). After the culture for 2 days, 1 mM (final concentration) of dibutyl cAMP and 2.5 μM of bromodeoxyuridine (SIGMA) were added. After the culture for additional 10 to 14 days, the cells were subjected to the activity determination. The medium for IMR-32 cells thus prepared was replaced with 1 ml of Phenol Red-free Eagle minimum essential medium (GIBCO) containing […] 10 μM fura-2/AM (Dojin Kagaku, Co.) and earle's salts supplement, and the incubation was conducted at 25° C. for 1 hour.
(§2) Then the medium was replaced with Phenol Red-free Eagle minimum essential medium (GIBCO) containing earle's salts supplement, from which fura-2/AM had been removed. After the incubation at 37° C. for 1 hour, the medium was replaced with a recording medium (20 mM of HEPES-KOH, 115 mM of NaCl, 5.4 mM of KCl, 0.8 mM of MgCl2, 1.8 mM of CaCl2 and 13.8 mM of D-glucose). Antagonistic activity on N-type calcium channel was determined and analyzed by using a fluorescence microscope (Nikon Corporation) and an image analysis device ARGUS 50 (Hamamatsu Photonics). In particular, a recording medium (20 mM of HEPES-KOH, 115 mM of NaCl, 5.4 mM of KCl, 0.8 mM of MgCl2, 1.8 mM of CaCl2 and 13.8 mM of D-glucose) containing 1 μM of Nifedipine was given to the cells by reflux by a Y-tube method. Then a stimulating agent containing 60 mM of potassium chloride was rapidly given by the Y-tube method. Thereafter stimulating agents containing 60 mM of potassium chloride and 0.1, 1 or 10 μM of test compound were successively rapidly given by the Y-tube method to determine the antagonistic activity on the channel. Finally, a stimulating agent containing 60 mM of potassium chloride and 1 μM of omega conotoxin GVIA (Peptide institute, inc.) was rapidly given by the Y-tube method to realize a condition of 100% inhibition of N-type calcium channel.
The same procedure as that of the above-described tests was repeated except for the following changes: 60 mM of potassium chloride-containing stimulating agent was rapidly given by the Y-tube method while the calcium concentration change in the cells was examined in terms of N-type calcium channel activity. Then Stimulating agents containing 60 mM of potassium chloride and 0.1, 1 or 10 μM of test compound were successively and rapidly given by the Y-tube method. A change in calcium concentration in the cells was determined.

[2] = target: T2, L-type calcium channel (Rattus norvegicus, UniProt P22002); assay: Antagonistic activity on L-type calcium channel: relaxation of KCl contraction of rat thoracic aorta samples; conditions: High K+ (50 mM KCl) contraction
T2 construct: The slips of thoracic aorta extracted from a Sprague-Dawry rat was used; from tissue; host or cells: rat (Sprague-Dawley) thoracic aorta rings, endothelium removed
Experimental: The activity of the dihydropyridine derivatives of the present invention to inhibit L-type calcium channel was determined by the following method in which the relaxation reaction on the KCl contraction of samples of thoracic aorta extracted from rats was employed.
1) Method of preparation of samples of thoracic aorta extracted from rats:
The slips of thoracic aorta extracted from a Sprague-Dawry rat was used. The blood vessels were cut to obtain ring-shaped samples having a width of about 3 mm. The endothelial cells of the blood vessel were mechanically removed. The samples were suspended in a strain gage in Tyrode's solution (158.3 mM of NaCl, 4.0 mM of KCl, 1.05 mM of MgCl2, 0.42 mM of NaH2PO4, 10 mM of NaHCO3, 2 mM of CaCl2 and 5 mM of glucose) in which a gaseous mixture of O2 (95%) and CO2 (5%) was introduced. A static tension of 2 g was applied hereto. The tension of the blood vessel was amplified with transducer and a tension amplifier (EF-601G; Nihon Koden Corporation) and recorded with a multi-pen recorder (Rikadenki Kogyo Co., Ltd.). The experiments were conducted at 37° C.
2) Determination of Relaxation After KCl Contraction:
After the tension had been stabilized, the nutrient solution in the sample tank was replaced with High K^+ Tyrode's solution (112.3 mM of NaCl, 50 mM of KCl, 1.05 mM of MgCl2, 0.42 mM of NaH2PO4, 10 mM of NaHCO3, 2 mM of CaCl2 and 5 mM of glucose) to conduct the contraction reaction. 30 minutes after, the solution in the sample tank was replaced with the normal Tyrode's solution. The solution in the sample tank was again replaced with the High K^+ Tyrode's solution and the contraction reaction was observed. After attaining the maximum contraction reaction, the test compound was cumulatively added at intervals of […] to attain concentrations of 10^−7, 10^−6 and 10^−5M. The rate of the test compound to control the maximum contraction reaction was employed as the index of the inhibition activity on L-type calcium channel.

[3] = target: T1, N-type calcium channel; assay: Antagonistic activity on N-type calcium channel (fluorescence dye method), IMR-32 cells, in presence of 1 μM Nifedipine; assay type: cell-based; conditions: 60 mM KCl stimulation, 0.1, 1 or 10 μM test compound, Table 9, read-out: N-type inhibition pIC50 (converted)
Experimental: as §1, §2

[4] = Table 10, read-out: L-type inhibition IC50
[5] = Table 9, read-out: L-type inhibition IC50

T1 sequence (Q00975 whole entry): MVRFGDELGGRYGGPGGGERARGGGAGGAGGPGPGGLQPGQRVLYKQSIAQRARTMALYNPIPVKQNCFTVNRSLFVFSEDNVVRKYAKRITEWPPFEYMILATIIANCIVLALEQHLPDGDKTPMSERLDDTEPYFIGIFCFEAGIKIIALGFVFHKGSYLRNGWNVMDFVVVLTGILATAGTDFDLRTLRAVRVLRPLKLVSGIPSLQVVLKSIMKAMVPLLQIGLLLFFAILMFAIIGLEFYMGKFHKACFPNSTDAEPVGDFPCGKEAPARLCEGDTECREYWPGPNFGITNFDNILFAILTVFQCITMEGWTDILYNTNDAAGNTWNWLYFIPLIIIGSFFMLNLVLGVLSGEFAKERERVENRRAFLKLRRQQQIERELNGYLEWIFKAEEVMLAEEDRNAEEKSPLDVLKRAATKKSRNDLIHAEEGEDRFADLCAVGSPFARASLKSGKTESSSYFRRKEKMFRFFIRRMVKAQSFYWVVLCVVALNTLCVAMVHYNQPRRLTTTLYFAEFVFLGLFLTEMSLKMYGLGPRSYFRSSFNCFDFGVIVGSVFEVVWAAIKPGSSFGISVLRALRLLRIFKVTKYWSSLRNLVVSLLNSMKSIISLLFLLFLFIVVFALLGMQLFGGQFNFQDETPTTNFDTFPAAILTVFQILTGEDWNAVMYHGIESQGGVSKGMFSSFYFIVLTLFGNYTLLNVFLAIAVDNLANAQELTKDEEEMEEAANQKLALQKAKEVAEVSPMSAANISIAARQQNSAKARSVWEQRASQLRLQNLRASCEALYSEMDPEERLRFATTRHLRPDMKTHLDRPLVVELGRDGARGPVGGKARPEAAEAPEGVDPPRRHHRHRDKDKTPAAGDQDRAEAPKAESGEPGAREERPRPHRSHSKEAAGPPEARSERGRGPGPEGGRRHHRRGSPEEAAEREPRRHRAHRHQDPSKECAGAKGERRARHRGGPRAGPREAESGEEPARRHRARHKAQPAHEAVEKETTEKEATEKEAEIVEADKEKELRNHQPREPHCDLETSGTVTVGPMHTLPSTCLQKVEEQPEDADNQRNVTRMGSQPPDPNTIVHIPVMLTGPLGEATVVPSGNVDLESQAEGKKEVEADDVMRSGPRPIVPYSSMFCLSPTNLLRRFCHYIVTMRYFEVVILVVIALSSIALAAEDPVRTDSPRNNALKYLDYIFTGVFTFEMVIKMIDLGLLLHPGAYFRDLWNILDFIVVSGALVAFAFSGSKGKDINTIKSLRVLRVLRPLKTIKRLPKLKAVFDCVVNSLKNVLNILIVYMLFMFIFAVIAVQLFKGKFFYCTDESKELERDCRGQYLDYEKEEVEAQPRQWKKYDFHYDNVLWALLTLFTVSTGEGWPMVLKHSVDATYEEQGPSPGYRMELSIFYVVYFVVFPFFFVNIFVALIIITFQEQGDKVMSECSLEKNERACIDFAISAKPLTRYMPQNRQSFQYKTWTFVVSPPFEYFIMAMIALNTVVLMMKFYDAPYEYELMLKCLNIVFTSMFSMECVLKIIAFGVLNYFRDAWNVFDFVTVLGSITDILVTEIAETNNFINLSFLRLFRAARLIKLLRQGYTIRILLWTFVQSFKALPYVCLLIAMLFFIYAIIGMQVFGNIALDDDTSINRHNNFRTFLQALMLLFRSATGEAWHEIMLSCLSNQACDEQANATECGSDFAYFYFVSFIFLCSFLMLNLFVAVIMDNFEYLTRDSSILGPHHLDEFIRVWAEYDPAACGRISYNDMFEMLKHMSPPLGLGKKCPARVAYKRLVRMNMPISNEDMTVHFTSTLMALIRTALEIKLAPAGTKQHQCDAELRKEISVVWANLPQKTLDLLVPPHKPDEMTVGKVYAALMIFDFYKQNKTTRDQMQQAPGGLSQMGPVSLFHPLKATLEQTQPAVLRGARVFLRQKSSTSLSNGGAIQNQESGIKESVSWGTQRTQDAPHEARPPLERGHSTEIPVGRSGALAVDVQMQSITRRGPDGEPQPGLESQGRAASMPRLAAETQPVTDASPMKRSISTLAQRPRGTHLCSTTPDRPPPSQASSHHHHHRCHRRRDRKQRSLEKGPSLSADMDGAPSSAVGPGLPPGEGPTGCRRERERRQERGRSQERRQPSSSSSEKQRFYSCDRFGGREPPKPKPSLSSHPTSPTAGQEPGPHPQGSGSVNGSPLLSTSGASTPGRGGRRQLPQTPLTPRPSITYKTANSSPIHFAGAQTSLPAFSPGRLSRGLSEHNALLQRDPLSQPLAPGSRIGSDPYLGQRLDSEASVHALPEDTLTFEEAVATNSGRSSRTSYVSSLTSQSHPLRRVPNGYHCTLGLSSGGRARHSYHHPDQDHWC
T1 sequence (P54289 25-1103 partner): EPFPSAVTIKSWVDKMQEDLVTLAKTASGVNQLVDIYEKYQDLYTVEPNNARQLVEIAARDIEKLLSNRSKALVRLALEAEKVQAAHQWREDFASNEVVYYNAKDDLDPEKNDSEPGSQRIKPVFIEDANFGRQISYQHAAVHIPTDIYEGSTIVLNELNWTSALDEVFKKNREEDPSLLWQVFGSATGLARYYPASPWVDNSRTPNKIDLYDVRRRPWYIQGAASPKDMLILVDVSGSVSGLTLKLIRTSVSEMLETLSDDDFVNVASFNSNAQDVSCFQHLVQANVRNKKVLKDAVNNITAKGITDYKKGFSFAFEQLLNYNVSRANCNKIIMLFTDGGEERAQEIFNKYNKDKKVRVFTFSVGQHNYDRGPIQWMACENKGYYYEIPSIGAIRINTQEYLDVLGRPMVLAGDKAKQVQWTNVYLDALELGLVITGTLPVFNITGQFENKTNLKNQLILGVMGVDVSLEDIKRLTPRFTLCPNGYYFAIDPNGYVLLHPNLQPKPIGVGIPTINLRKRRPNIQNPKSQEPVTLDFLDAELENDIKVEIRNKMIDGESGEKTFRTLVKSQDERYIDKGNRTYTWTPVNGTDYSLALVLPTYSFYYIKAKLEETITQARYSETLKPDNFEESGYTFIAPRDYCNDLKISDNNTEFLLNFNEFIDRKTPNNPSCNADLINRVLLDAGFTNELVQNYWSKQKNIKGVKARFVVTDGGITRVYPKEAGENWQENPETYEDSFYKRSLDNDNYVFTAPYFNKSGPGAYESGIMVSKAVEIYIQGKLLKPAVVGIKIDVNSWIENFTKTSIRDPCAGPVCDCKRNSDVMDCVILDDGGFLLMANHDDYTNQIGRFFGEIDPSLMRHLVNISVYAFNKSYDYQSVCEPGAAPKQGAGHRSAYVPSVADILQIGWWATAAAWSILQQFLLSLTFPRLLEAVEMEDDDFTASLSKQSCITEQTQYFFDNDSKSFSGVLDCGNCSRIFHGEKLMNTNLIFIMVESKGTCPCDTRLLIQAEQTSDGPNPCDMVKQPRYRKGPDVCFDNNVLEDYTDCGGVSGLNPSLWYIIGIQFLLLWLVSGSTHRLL
T1 sequence (P54284 whole entry partner): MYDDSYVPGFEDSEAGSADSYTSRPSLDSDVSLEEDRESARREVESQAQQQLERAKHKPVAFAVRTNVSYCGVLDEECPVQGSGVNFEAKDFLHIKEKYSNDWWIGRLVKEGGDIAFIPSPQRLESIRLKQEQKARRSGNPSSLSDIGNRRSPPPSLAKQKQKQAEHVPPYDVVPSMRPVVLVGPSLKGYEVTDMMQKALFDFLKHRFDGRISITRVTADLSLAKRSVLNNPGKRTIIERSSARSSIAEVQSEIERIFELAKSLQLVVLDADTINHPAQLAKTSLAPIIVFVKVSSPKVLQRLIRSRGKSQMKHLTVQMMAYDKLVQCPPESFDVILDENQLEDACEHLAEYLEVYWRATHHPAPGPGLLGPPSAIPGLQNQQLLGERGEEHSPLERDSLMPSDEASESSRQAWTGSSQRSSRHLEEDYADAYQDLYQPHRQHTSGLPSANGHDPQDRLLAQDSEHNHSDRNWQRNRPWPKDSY

Structure (SMILES) | IC50 [1] [nM] | pIC50 [2, 4] | pIC50 [2, 5] | IC50 [3] [nM]
CC1=C(C(=O)O)C(c2cccc(Cl)c2)C(C(=O)OCCC(c2ccccc2)c2ccccc2)=C(COCCN2CCCCC2)N1 (stereo not shown) [Example 12, 5-(3,3-diphenylpropane-1-yl)4-(3-chlorophenyl)-2-methyl-6-(2-piperidine-1-yl-ethoxymethyl)-1,4-dihydropyridine-3,5-dicarboxylate] | 3980 |  | 5.57 | 1580
COCC1=C(C(=O)OCCC(c2ccccc2)c2ccccc2)C(c2cccc(Cl)c2)C(C(=O)O)=C(C)N1 (stereo not shown) [Example 14, 3-(3,3-diphenylpropane-1-yl)4-(3-chlorophenyl)-2-methoxymethyl-6-methyl-1,4-dihydropyridine-3,5-dicarboxylate] | 2000 | 5.37 | 5.37 | 1200
COC(OC)C1=C(C(=O)OCCC(c2ccccc2)c2ccccc2)C(c2cccc(Cl)c2)C(C(=O)O)=C(C)N1 (stereo not shown) [Example 60, 3-(3,3-diphenylpropyl)4-(3-chlorophenyl)-2-dimethoxymethyl-6-methyl-1,4-dihydropyridine-3,5-dicarboxylate] | 1580 | 5.41 |  | 
CC1=C(C(=O)OCCC(c2ccccc2)c2ccccc2)C(c2cccc(Cl)c2)C(C(=O)O)=C(COCCN2CCCCC2)N1 (stereo not shown) [Example 23, 3-(3,3-diphenylpropane-1-yl)4-(3-chlorophenyl)-2-methyl-6-(2-(piperidine-1-yl)ethoxymethyl)-1,4-dihydropyridine-3,5-dicarboxylate] | 1580 | 5.74 | 5.74 | 1200
CC1=C(C(=O)OCCC(c2ccccc2)c2ccccc2)C(c2cccc(Cl)c2)C(C(=O)N2CCN(C(=O)OC(C)(C)C)CC2)=C(C)N1 (stereo not shown) [Example 15, t-butyl 4-(4-(3-chlorophenyl)-5-(3,3-diphenylpropoxycarbonyl)-2,6-dimethyl-1,4-dihydropyridine-3-carbonyl)piperazine-1-carboxylate] |  |  | 4.68 | 372
CC1=C(C(=O)O)C(c2cccc(Cl)c2)C(C(=O)OCCC(c2ccccc2)c2ccccc2)=C(C(F)(F)F)N1 (stereo not shown) [Example 57, 5-(3,3-diphenylpropyl)4-(3-chlorophenyl)-2-methyl-6-trifluoromethyl-1,4-dihydropyridine-3,5-dicarboxylate] | 1580 | 5.75 |  | 

Now from value to compound:

IC50 [1] [nM] | pIC50 [2, 4] | pIC50 [2, 5] | IC50 [3] [nM] | Structure (SMILES)
1580 | 5.77 |  |  | CC1=C(C(=O)O)C(c2cccc(Cl)c2)C(C(=O)OCCC(c2ccccc2)c2ccccc2)=C(COCCc2cccnc2)N1 (stereo not shown) [Example 33, 5-(3,3-diphenyl-1-propyl)4-(3-chlorophenyl)-2-methyl-6-(2-(3-pyridine)ethoxy)methyl-1,4-dihydropyridine-3,5-dicarboxylate]
2000 | 5.80 |  |  | CC1=C(C(=O)O)C(c2cccc(Cl)c2)C(C(=O)OCCC(c2ccccc2)c2ccccc2)=C(COCCc2ccncc2)N1 (stereo not shown) [Example 54, 5-(3,3-diphenylpropyl)4-(3-chlorophenyl)-2-methyl-6-(2-[pyridine-4-yl]ethoxymethyl)-1,4-dihydropyridine-3,5-dicarboxylate]
3160 | 5.54 | 5.56 | 1780 | CC1=C(C(=O)O)C(c2cccc(Cl)c2)C(C(=O)OCCC(c2ccccc2)c2ccccc2)=C(COCCO)N1 (stereo not shown) [Example 20, 3-(3,3-diphenylpropane-1-yl)4-(3-chlorophenyl)-2-(2-hydroxyethoxymethyl)-6-methyl-1,4-dihydropyridine-3,5-dicarboxylate]
